The source of these data is US20260007720A1, “TISSUE REGENERATIVE MULTI-DRUG COCKTAIL AND APPARATUS FOR DELIVERY THEREOF” (priority 2022, published 2026).

The test system of the assay is amputated P2 bone. The experiment in a line: Multiple treatments targeting chondrogenesis after P2 amputation. Format: in vivo, adult CD-1 mice. The note with it: 98 days after amputation.

Protocol: Amputation Surgery and Device Attachment and Removal—All experiments were performed under the approval of Tuft's IACUC. All animals were housed in 12-hour light and dark cycles and fed using the recommended feed. Female CD-1 (Charles River Laboratories, Wilmington, MA) and FVB/NJ mice (Jackson Laboratories, Bar Harbor, ME) from 8 to 10 weeks of age were used in the study. Animals were anesthetized with isoflurane administered at 2 to 5% air composition. For single treatment (FIG. 20A), P2 amputation in hindlimb digit 3 was made using a scalpel under a dissection microscope. Immediately after P2 amputation, the dragonskin insert containing silk hydrogel with or without bioactive molecules was then attached to the amputated digit using Skin Tite™ Bioadhesive (Smooth-On, PA). Prior to hydrogel loading, all materials and tools used in the experiment (e.g. surgical tools and device components) were autoclaved to ensure sterility. Devices were attached for various time periods and the amputation digits were then allowed to heal after device removal. For the approach to target active chondrogenesis (FIG. 20B), hindlimb digit 3 was amputated at P2 level and allowed to heal conservatively for 7 to 9 days. […]

Take insulin-like growth factor-1 [IGF-1]: the P2 bone elongation result is “promote P2 bone elongation”.
